Patent US12246009B2, “Compositions and methods for treating neurodegenerative, myodegenerative, and lysosomal storage disorders” (GEORGETOWN UNIVERSITY, priority 2018, dated 2025)
Entries after “also recorded” stand apart in the source; their conditions may differ.

Tests used:
dopamine = test: Dopamine and homovanillic acid (HVA) levels in A53T mice; assay type: in vivo, mouse; conditions: 2.5 mg/kg i.p., 21 days
Src = molecular target: T1, Src (Mus musculus, UniProt P05480); test: Activated Src immunoblot in rTG4510 mice; assay type: in vivo; conditions: rTG4510 mice, 1.25, 2.5 or 5 mg/kg i.p., 7 days
T1 construct: Brains from treated mice compared with DMSO treated mice were homogenized in STEN lysis buffer; from tissue; host or cells: brain of rTg4510 mice
T1 sequence (P05480 whole entry): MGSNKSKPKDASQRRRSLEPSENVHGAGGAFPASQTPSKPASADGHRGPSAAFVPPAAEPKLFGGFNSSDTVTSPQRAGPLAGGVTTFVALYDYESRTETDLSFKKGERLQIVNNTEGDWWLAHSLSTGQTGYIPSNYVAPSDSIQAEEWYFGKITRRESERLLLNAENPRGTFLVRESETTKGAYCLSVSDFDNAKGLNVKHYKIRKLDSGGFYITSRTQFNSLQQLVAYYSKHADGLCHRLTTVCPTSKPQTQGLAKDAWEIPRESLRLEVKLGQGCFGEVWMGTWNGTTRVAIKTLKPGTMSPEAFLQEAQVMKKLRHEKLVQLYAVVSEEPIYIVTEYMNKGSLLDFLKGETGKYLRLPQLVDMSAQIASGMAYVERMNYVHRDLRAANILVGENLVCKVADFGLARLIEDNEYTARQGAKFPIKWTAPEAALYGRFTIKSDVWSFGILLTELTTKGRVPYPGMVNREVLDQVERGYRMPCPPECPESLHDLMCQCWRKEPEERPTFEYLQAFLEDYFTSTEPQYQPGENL

Ab1 [1] = molecular target: T2, Ab1 (Mus musculus, UniProt P00520); test: Activated (phosphorylated) Ab1 (245) immunoblot in transgenic APP mice; assay type: in vivo; conditions: i.p., 21 days
T2 construct: Brains from treated mice compared with DMSO treated mice were homogenized in STEN lysis buffer; from tissue; host or cells: brain of rTg4510 or TgAPP mice
T2 sequence (P00520 whole entry): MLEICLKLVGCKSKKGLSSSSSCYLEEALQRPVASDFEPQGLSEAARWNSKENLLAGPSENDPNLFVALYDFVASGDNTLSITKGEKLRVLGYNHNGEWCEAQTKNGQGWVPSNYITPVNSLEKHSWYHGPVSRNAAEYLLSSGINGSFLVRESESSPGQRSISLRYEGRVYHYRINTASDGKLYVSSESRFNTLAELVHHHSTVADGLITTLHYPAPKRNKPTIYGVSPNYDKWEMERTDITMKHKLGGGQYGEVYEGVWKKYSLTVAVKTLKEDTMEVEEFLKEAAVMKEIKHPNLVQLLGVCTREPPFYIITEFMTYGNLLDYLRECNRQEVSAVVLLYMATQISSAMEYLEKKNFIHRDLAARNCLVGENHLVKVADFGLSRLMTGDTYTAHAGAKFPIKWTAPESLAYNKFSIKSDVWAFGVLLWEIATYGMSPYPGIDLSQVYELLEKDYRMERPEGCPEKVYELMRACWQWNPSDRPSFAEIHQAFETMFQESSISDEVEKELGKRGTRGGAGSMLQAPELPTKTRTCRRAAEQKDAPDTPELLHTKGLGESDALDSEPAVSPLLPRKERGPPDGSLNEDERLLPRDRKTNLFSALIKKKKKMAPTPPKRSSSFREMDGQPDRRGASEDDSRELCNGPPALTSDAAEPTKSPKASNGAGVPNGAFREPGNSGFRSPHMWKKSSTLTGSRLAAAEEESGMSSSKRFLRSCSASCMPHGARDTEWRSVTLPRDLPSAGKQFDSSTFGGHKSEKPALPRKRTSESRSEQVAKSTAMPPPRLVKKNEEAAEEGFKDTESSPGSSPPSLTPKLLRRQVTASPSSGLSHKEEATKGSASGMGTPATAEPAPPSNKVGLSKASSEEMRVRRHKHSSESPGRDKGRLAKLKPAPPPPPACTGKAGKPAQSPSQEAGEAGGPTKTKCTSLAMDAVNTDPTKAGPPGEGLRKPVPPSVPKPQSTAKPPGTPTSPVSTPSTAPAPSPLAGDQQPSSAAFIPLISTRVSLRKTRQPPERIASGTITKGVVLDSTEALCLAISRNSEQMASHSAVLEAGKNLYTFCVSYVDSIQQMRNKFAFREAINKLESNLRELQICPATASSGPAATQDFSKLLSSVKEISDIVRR

Ab1 [2] = molecular target: T2, Ab1; test: Activated Ab1 immunoblot in rTG4510 mice; assay type: in vivo; conditions: rTG4510 mice, 1.25, 2.5 or 5 mg/kg i.p., 7 days
amyloid-beta (6E10) = test: Amyloid-beta (6E10) immunoblot in transgenic APP mice; assay type: in vivo, mouse; conditions: 1.25 and 2.5 mg/kg i.p., 21 consecutive days
A53T mice = test: Open field test in A53T mice; assay type: in vivo, mouse; conditions: 60-minute trial
pTau (191) = test: pTau in CamP301L mice; assay type: in vivo, mouse; conditions: 2.5 mg/kg or 5 mg/kg
Tau (HT7) = Tau (HT7) in Tau transgenic mice; assay type: in vivo, mouse; conditions: seven days of treatment, 1.25 mg/kg and 2.5 mg/kg
pTau (231) (AT180) = pTau (231) (AT180) Western blot in rTG4510 transgenic mice; assay type: in vivo, mouse; conditions: 1.25 mg/kg, 2.5 mg/kg or 5.0 mg/kg
B35 cells = test: Lactate dehydrogenase (LDH) assay, cytotoxicity / cell viability; assay type: cell-based; conditions: for LDH measured in the media (cell death / toxicity): 24 hour transfection with pTau or α-synuclein
Method: Rat neuroblastoma B35 cells were grown in Dulbecco's Modified Eagle's Medium (DMEM) with 10% Fetal Bovine Serum (FBS) and 1% penicillin/streptomycin and incubated at 37° C. with 5% CO2. For the experiments, cells were transferred to 12-well plates (Cat. #150628, ThermoFisher, Waltham, MA) and grown to at least 70% confluence. Transient transfection was performed with 3 μg P301 L tau (Cat. #30145, Addgene) cDNA or 3 μg human α-synuclein cDNA using Fugene HD transfection reagent (Cat. #E2311, Promega, Madison WI) for 24 hours. […] Cell culture media was collected and cells were harvested using sodium-tris, EDTA, NP-40 (STEN) buffer and centrifuged at 10,000×g for 20 minutes at 4′C and supernatant was collected. Cell viability was determined via lactate dehydrogenase assay (Cat. #88954, Thermofisher) and MTT assay (Cat. #V13154, Thermofisher). Protein was extracted by removing culture medium and adding 0.2 ml 1× STEN buffer (50 mM. Tris (pH 7.6), 150 mM NaCl, 2 mM EDTA, 0.2% NP-40, 0.2% BSA, 20 mM. PMSF and protease cocktail inhibitor) to cell layer and incubated on ice for 10 minutes. The bottom of the well was scraped and allowed to incubate on ice for an additional 10 minutes. Cell lysates were collected, stored at −80° C., and used for additional analyses.
Cellular cytotoxicity was quantitatively measured by assessment of LDH; a cytosolic enzyme that is released from damaged cells into the cellular media, after exposure to the drug 5 hours after initial dosage. The cell culture media was collected, and an aliquot was coupled with a lactate and NAD+. LDH catalyzes the reaction that converts lactate into pyruvate to produce NADH. NADH, in turn, reduces a tetrazolium salt (INT) into a red formazan product. The amount of LDH in the media is proportional to the amount of formazan, which was measured at 490 nm. The absorbance at 680 nm, to measure the background signal from the instrument, was subtracted from the absorbance at 490 nm to calculate the LDH activity.

DDR1 = molecular target: T3, DDR1 (Mus musculus, UniProt Q03146); test: Phosphorylated (active) DDR1 (pMCK10) immunoblot in rTG4510 mice; assay type: in vivo; conditions: for phosphorylated (active) DDR1 (pMCK10), immunoblot: 1.25 mg/kg or 2.5 mg/kg i.p.
T3 construct: Brains were collected and homogenized in 1.0 ml 1× STEN buffer; from tissue; host or cells: brain of rTg4510 or TgAPP mice
T3 sequence (Q03146 20-911): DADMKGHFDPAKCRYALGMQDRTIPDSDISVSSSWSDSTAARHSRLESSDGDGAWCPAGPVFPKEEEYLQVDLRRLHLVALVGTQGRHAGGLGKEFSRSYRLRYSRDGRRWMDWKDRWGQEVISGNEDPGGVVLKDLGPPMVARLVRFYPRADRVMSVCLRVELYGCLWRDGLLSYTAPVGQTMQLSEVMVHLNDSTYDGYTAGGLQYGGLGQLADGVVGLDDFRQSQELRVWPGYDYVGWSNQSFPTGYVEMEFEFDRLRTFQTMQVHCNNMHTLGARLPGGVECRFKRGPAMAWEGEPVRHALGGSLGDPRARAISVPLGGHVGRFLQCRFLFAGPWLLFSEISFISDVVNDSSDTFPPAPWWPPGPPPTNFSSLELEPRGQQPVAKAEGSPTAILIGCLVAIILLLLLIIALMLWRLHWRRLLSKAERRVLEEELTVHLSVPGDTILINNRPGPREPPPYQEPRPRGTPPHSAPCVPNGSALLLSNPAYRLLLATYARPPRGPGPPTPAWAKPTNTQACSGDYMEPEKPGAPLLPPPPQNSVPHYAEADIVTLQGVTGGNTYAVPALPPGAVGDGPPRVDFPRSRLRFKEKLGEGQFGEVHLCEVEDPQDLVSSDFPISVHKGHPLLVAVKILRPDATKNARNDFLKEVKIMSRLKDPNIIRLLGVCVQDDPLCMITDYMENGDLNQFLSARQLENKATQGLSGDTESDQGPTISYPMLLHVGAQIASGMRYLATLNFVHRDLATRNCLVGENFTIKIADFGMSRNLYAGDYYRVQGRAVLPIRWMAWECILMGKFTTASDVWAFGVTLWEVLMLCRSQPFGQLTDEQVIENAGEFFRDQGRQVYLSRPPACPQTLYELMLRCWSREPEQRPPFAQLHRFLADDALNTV

hippocampus of APP mice = test: Nissl staining of hippocampal sections of APP mice (cell death); conditions: 1.25 mg/kg and 2.5 mg/kg

Cc1cccc(-c2cc3nccc(Nc4ccccc4)c3s2)c1 [BK40143, N-Phenyl-2-(m-tolyl)thieno[3,2-b]pyridin-7-amine] was tested, and the “level of the dopamine metabolite homovanillic acid (HVA)” value (dopamine) was “increase”, the “increase of overall level of dopamine” value (dopamine; 2.5 mg/kg) was 30% and the “increase of overall level of dopamine” value (dopamine; listed as BK-40143, 2.5 mg/kg) was “about 30%”. For the same compound, the “activated Src, immunoblot” value (Src) was “did not engage”, the “activated Src, immunoblot” value (Src; listed as BK-40143) was “does not engage” and the “activated (phosphorylated) Ab1 (245)” value (Ab1 [1]) was “does not engage Ab1; also recorded: did not engage Ab1”. The “activated Ab1, immunoblot” value (Ab1 [2]) was “did not engage”, the “activated Ab1, immunoblot” value (Ab1 [2]; listed as BK-40143) was “does not engage” and the “aggregating extracellular amyloid-beta (6E10), immunoblot” value (amyloid-beta (6E10)) was “significantly reduced amyloid-beta plaques”. For the same compound, the “total distance travelled, open field” value (A53T mice) was “did not show any difference”, the “total time spent moving, open field” value (A53T mice) was “did not show any difference” and the “velocity of movements, open field” value (A53T mice) was “significantly increased”. For the same compound, the “pTau (191) level” value (pTau (191)) was “reduced”, the “Tau (HT7) level” value (Tau (HT7)) was “significantly reduced” and the “levels of pTau (231) (AT180), Western blot” value (pTau (231) (AT180)) was “did not affect”. For the same compound, the “lactate dehydrogenase (LDH), neuroprotective effect” value (B35 cells; 1 μM, 16 hours of treatment, compared to control) was “decrease”, the “LDH measured in the media (cell death / toxicity)” value (B35 cells; five hours of treatment) was “does not result in toxicity or cell death” and the “LDH measured in the media (cell death / toxicity)” value (B35 cells; five hours of treatment, listed as BK41043) was “without any change to LDH levels”. The “cell viability via LDH” value (B35 cells; five hours of treatment, with decreasing concentrations) was “stepwise increase in cell viability”, the “phosphorylated (active) DDR1 (pMCK10), immunoblot” value (DDR1; rTG4510 mice, 7 days) was “deactivated DDR; also recorded: deactivated DDR1” and the “phosphorylated (active) DDR1 (pMCK10), immunoblot” value (DDR1; rTG4510 mice, 7 days, listed as BK-40143) was “in vivo inhibition of DDR1”. The “deactivation of DDR1 (phosphorylated DDR1 immunoblot)” value (DDR1; rTG4510 mice, 5 mg/kg i.p., 7 days) was “not”, the “deactivation of DDRs” value (DDR1; rTG4510 tauopathy mouse model, i.p., 7 consecutive days) was “about 50%” and the “cell death in the hippocampus (Nissl staining intensity)” value (hippocampus of APP mice) was “does not cause cell death”.
